# Experimental data published in PubChem BioAssay (NCI).
#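 These data come from cells grown in 96-well plates and exposed to compound for 48 hours at five concentrations. The concentration for 50% growth inhibition is given as GI50. TGI marks complete inhibition of growth.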
# Tests used:
# Assay in all cases: NCI tumour cell line growth inhibition, 48 h
# [1] = system: LOX IMVI melanoma
# [2] = system: HT29 colon
# [3] = system: UO-31 renal
# [4] = system: MALME-3M melanoma
# [5] = system: SK-OV-3 ovarian
# [6] = system: NCI-H226 lung
# [7] = system: RXF 393 renal
# [8] = system: OVCAR-4 ovarian
Structure (SMILES),TGI [1],TGI [2],TGI [3],TGI [4],TGI [5],TGI [6],TGI [7],TGI [8],GI50 [1],GI50 [2],GI50 [3],GI50 [4],GI50 [8],GI50 [5]
COC(=O)NN=C1C(C)(C)C(=O)C1(C)C,> 100 µM,> 100 µM,> 100 µM,> 100 µM,> 100 µM,> 100 µM,> 100 µM,–,–,–,–,–,–,–
CN1CC[C@]2(C)c3cc(O)ccc3CC3CCCC1C32C (some centres undefined),> 100 µM,> 100 µM,> 100 µM,> 100 µM,> 100 µM,> 100 µM,> 100 µM,–,–,–,–,–,–,–
O=C(O)CCC(NC(=O)c1ccccc1)C(=O)O (centres undefined),> 100 µM,> 100 µM,> 100 µM,> 100 µM,> 100 µM,–,> 100 µM,> 100 µM,–,–,–,–,–,–
Cn1ccc2c(C(=O)c3ccccc3)cccc2c1=O,> 100 µM,> 100 µM,–,> 100 µM,> 100 µM,–,> 100 µM,> 100 µM,–,–,–,–,–,–
O=C1CCCC(=O)N1CCc1c[nH]c2ccccc12,–,> 100 µM,> 100 µM,> 100 µM,> 100 µM,> 100 µM,> 100 µM,> 100 µM,–,–,–,–,–,–
COc1cc(C(O)C(=O)c2nc3ccc([N+](=O)[O-])cc3[nH]c2=O)ccc1O (centres undefined),> 100 µM,> 100 µM,> 100 µM,> 100 µM,> 100 µM,> 100 µM,–,> 100 µM,–,–,–,–,–,–
C[C@]12CCC(=O)C(O)=C1CC[C@@H]1C2CC[C@]2(C)Nc3c(cnn3-c3ccccc3)CC12 (some centres undefined),–,> 100 µM,> 100 µM,> 100 µM,> 100 µM,> 100 µM,> 100 µM,> 100 µM,–,–,–,–,–,–
Fc1ccccc1C1SCc2nc3ccccc3n21 (centres undefined),–,> 100 µM,> 100 µM,> 100 µM,> 100 µM,> 100 µM,> 100 µM,–,–,–,–,–,–,–
CC1=NN(C(=O)CC(=O)NC(=O)CC(=O)Nc2ccccc2F)C(=O)C1N=Nc1ccc([N+](=O)[O-])cc1 (centres undefined),35.8 µM,45.9 µM,84.2 µM,> 100 µM,> 100 µM,> 100 µM,–,> 100 µM,–,–,–,–,–,–
O=C1C2C=CC(C2)C(c2ccc(O)cc2)N1O (centres undefined),–,> 100 µM,> 100 µM,> 100 µM,> 100 µM,> 100 µM,–,> 100 µM,–,–,–,–,–,–
NCCN.NCCN.O=C([O-])CCl.O=C([O-])CCl.[Co+3].[O-][Cl+3]([O-])([O-])[O-],> 100 µM,> 100 µM,> 100 µM,> 100 µM,> 100 µM,–,–,> 100 µM,> 100 µM,> 100 µM,> 100 µM,> 100 µM,> 100 µM,> 100 µM
O=c1nc(NC(c2ccccc2)(c2ccccc2)c2ccccc2)ccn1CCNCCn1ccc(NC(c2ccccc2)(c2ccccc2)c2ccccc2)nc1=O,7.86 µM,24.5 µM,> 100 µM,29.3 µM,46.1 µM,34.7 µM,25.6 µM,49 µM,–,–,–,–,–,–
Cc1ccc([N+](=O)[O-])cc1NC(=O)c1cccc([N+](=O)[O-])c1O,> 100 µM,> 100 µM,36.2 µM,62.7 µM,54.3 µM,51.9 µM,27.7 µM,–,–,–,–,–,–,–
COC(=O)NC12CC3CC(CC(F)(C3)C1)C2,> 100 µM,> 100 µM,> 100 µM,> 100 µM,> 100 µM,–,> 100 µM,–,–,–,–,–,–,–
CN(C)C=[N+]=[N-],–,> 100 µM,> 100 µM,> 100 µM,> 100 µM,> 100 µM,> 100 µM,> 100 µM,–,–,–,–,–,–
O=C(c1ccccc1)[C@@H]1C[C@H](Sc2ccccc2)c2cc(Cl)ccc2N1,47.7 µM,56.3 µM,56.7 µM,> 100 µM,–,62.9 µM,26.5 µM,> 100 µM,–,–,–,–,–,–
C/C=C1/CCC2c3[nH]c4ccccc4c3CCN2C1 (centres undefined),–,> 100 µM,> 100 µM,67.7 µM,> 100 µM,> 100 µM,> 100 µM,> 100 µM,–,–,–,–,–,–
O=C(NCCCCCCNC(=O)OCCSCCn1cc(C(=O)NC(=O)OCc2ccccc2)c(=O)[nH]c1=O)OCCSCCn1cc(C(=O)NC(=O)OCc2ccccc2)c(=O)[nH]c1=O,> 100 µM,> 100 µM,> 100 µM,> 100 µM,–,> 100 µM,> 100 µM,> 100 µM,–,–,–,–,–,–
C=C1C(=O)OC2C=C(CCC(C)=O)C(C)C(OC(C)=O)CC12 (centres undefined),3.34 µM,27.1 µM,26.6 µM,25.2 µM,–,32.8 µM,5.42 µM,27.7 µM,–,–,–,–,–,–
Cc1cc(NS(=O)(=O)c2ccc(NC(=O)c3ccc(Cl)c4c(Nc5ccc(S(=O)(=O)N=C(N)N)cc5)c5ccccc5nc34)cc2)no1,98.7 µM,> 100 µM,> 100 µM,> 100 µM,> 100 µM,–,48.6 µM,> 100 µM,–,–,–,–,–,–
C[N+]1(C)C/C(=C\c2ccccc2)C(=O)/C(=C/c2ccccc2)C1,–,> 100 µM,> 100 µM,> 100 µM,> 100 µM,> 100 µM,> 100 µM,> 100 µM,–,–,–,–,–,–
CCCC/C=C1\CCC(C)(CN(C)C)C1=O (centres undefined),–,> 100 µM,> 100 µM,> 100 µM,–,–,> 100 µM,> 100 µM,–,–,–,–,–,–
